Experimental data taken from US20140243418A1, “RASAGILINE FOR PARKINSON'S DISEASE MODIFICATION” (Teva Pharmaceutical Industries, Ltd., priority 2008, published 2014).
“And” between values parts separate entries of the source, which are not always exact repeats. Equal entries are not always repeated. Where two headings read alike, the source gives them in different places.

System: Early Stage PD patients
Details: for Primary 1: rate of change in UPDRS, weeks 12-36, 1 mg/day - placebo / Secondary Endpoint: change in total UPDRS from baseline to final visit in phase I, 1 mg/day - placebo: rasagiline 1 mg/day minus placebo; for Primary 1: rate of change in UPDRS, weeks 12-36, 2 mg/day - placebo / Secondary Endpoint: change in total UPDRS from baseline to final visit in phase I, 2 mg/day - placebo: rasagiline 2 mg/day minus placebo
Procedure: 1 mg/day rasagiline during Phase I and Phase II; • Group 2. 2 mg/day rasagiline during Phase I and Phase II; • Group 3. placebo during Phase I followed by 1 mg/day rasagiline during Phase II; and • Group 4. placebo during Phase I followed by 2 mg/day rasagiline during Phase II.
Thus, ‘early-start’ patients receive 72 weeks of treatment with rasagiline (1 or 2 mg once daily) and ‘delayed-start’ patients receive 36 weeks of placebo followed by 36 weeks of rasagiline (1 or 2 mg once daily). […] If subjects in either treatment group required additional anti-parkinsonian medication during the placebo-controlled stage of the trial, they could proceed directly to Phase II. Once in Phase II, no additional anti-PD therapy is permitted. If the patient requires additional medication in this stage they are discontinued from the study.
1 mg/day rasagiline during Phase I and Phase II (1 mg early start) • 2. 2 mg/day rasagiline during Phase I and Phase II (2 mg early start) • 3. placebo during Phase I followed by 1 mg/day rasagiline during Phase II (1 mg delayed start) • 4. placebo during Phase I followed by 2 mg/day rasagiline during Phase II (2 mg delayed start)
If, at any stage during the placebo-controlled phase the investigator determines that a subject needs additional anti-PD therapy, the subject will proceed to Phase II of the study. The investigator, aided by a questionnaire, will give careful consideration to the issue of a subject's need for additional anti-PD therapy. Scheduled in-clinic visits will be conducted at baseline and at weeks 4, 12, 24 and 36. Therefore, altogether there will be 5 scheduled visits during this phase. Unscheduled visits may be conducted at any time to assess a subject's need for additional anti-PD therapy, for safety reasons or for any other reason.
Thus, subjects who receive 1 mg rasagiline during Phase I will continue to receive 1 mg during Phase II, subjects who receive 2 mg rasagiline during Phase I will continue to receive 2 mg during Phase II, and subjects who receive placebo during Phase I will receive either 1 mg or 2 mg rasagiline during Phase II. The study blind will be maintained. No additional anti-PD therapy will be permitted during this phase. This applies to both the subjects who enter Phase II after completing the full 36-week duration of Phase I and to subjects who are switched from Phase I to Phase II because of a need of additional anti-PD therapy. If, the investigator determines that a subject needs additional anti-PD therapy during Phase II, the subject will be prematurely withdrawn from the study. The investigator, aided by a questionnaire, will give careful consideration to the issue of a subject's need for additional anti-PD therapy. Scheduled in-clinic visits will be conducted every 6 weeks. Therefore, altogether there will be 6 visits during this phase—at weeks 42, 48, 54, 60, 66 and 72. Unscheduled visits may be conducted at any time to assess a subject's need for additional anti-PD therapy, for safety reasons or for any other reason.

[1] = Baseline UPDRS > 25.5 (Upper Quartile)
[2] = Baseline UPDRS ≦ 25.5 (Lower 3 Quartiles)
[3] = rasagiline 1 mg/day, Baseline UPDRS > 25.5 (Upper Quartile)
[4] = rasagiline 1 mg/day, Baseline UPDRS ≦ 25.5 (Lower 3 Quartiles)
[5] = rasagiline 1 mg/day, all subjects
[6] = rasagiline 1 mg/day, all subjects, listed as Rasagiline
[7] = rasagiline 2 mg/day delayed-start, Baseline UPDRS > 25.5 (Upper Quartile)
[8] = rasagiline 2 mg/day delayed-start, Baseline UPDRS ≦ 25.5 (Lower 3 Quartiles)
[9] = rasagiline 2 mg/day delayed-start, all subjects
[10] = rasagiline 2 mg/day early-start minus delayed-start, Baseline UPDRS > 25.5 (Upper Quartile)
[11] = rasagiline 2 mg/day early-start minus delayed-start, Baseline UPDRS ≦ 25.5 (Lower 3 Quartiles)
[12] = rasagiline 2 mg/day early-start, Baseline UPDRS > 25.5 (Upper Quartile)
[13] = rasagiline 2 mg/day early-start, Baseline UPDRS ≦ 25.5 (Lower 3 Quartiles)
[14] = rasagiline 2 mg/day early-start, all subjects
[15] = rasagiline 2 mg/day, Baseline UPDRS > 25.5 (Upper Quartile)
[16] = rasagiline 2 mg/day, Baseline UPDRS ≦ 25.5 (Lower 3 Quartiles)
[17] = rasagiline 2 mg/day, all subjects

C#CCN[C@@H]1CCc2ccccc21 [rasagiline]
Primary 1: rate of change in UPDRS, weeks 12-36, 1 mg/day - placebo [1]: −0.11 UPDRS units/wk | Secondary Endpoint: change in total UPDRS from baseline to final visit in phase I, 1 mg/day - placebo [1]: −6.43 | Primary 1: rate of change in UPDRS, weeks 12-36, 1 mg/day - placebo [2]: −0.03 UPDRS units/wk | Secondary Endpoint: change in total UPDRS from baseline to final visit in phase I, 1 mg/day - placebo [2]: −2.34 | Primary 1: rate of change in UPDRS, weeks 12-36, 1 mg/day - placebo (all subjects): −0.05±0.02 UPDRS units/wk and −0.05 UPDRS units/wk | Secondary Endpoint: change in total UPDRS from baseline to final visit in phase I, 1 mg/day - placebo (all subjects): −3.01±0.43 and −3.01 | Primary 1: rate of change in UPDRS, weeks 12-36 [3]: 0.14 UPDRS units/wk | Secondary Endpoint: change in total UPDRS from baseline to final visit in phase I [3]: 0.27 | Primary 1: rate of change in UPDRS, weeks 12-36 [4]: 0.08 UPDRS units/wk | Secondary Endpoint: change in total UPDRS from baseline to final visit in phase I [4]: 1.40 | Change from baseline to week 72 in Total-UPDRS, early- vs delayed-start, Estimate (rasagiline 1 mg/day, Completers (n = 409), MMRM (week 48-72)): −1.6 | Change from baseline to week 72 in Total-UPDRS, early- vs delayed-start, Estimate (rasagiline 1 mg/day, ITT cohort (observed data), MMRM (weeks 12-72)): −1.7 | Change from baseline to week 72 in Total-UPDRS, early- vs delayed-start, Estimate (rasagiline 1 mg/day, Imputed - primary study cohort, Imputation by means of the delayed-start group (week 48-72)): −1.2 | Change from baseline to week 72 in Total-UPDRS, early- vs delayed-start, Estimate (rasagiline 1 mg/day, Imputed - primary study cohort, Multiple imputation (week 48-72)): −1.8 | Change from baseline to week 72 in Total-UPDRS, early- vs delayed-start, Estimate (rasagiline 1 mg/day, Per protocol (n = 405), MMRM (week 48-72)): −1.6 | Change from baseline to week 72 in Total-UPDRS, early- vs delayed-start, Estimate (rasagiline 1 mg/day, Primary study cohort (n = 489), MMRM (week 48-72)): −1.7 | Change from baseline to week 72 in Total-UPDRS, early- vs delayed-start, Estimate (rasagiline 1 mg/day, Primary study cohort, ANCOVA with LOCF): −1.7 | Change from baseline to week 72 in Total-UPDRS, early- vs delayed-start, Estimate (rasagiline 1 mg/day, Primary study cohort, MMRM, average change from baseline across weeks 48-72): −1.6 | Primary 1: rate of change in UPDRS, weeks 12-36 [5]: 0.09 UPDRS units/wk | Secondary Endpoint: change in total UPDRS from baseline to final visit in phase I [5]: 1.26 | outcome of the primary analysis (three hierarchal endpoints) [5]: met all three primary analysis endpoints | Primary 1: rate of change in UPDRS, weeks 12-36 [6]: 0.09±0.02 UPDRS units/wk | outcome of the primary analysis (three hierarchal endpoints) [6]: met all endpoints | Primary 2: estimated change in total UPDRS from baseline to week 72 [7]: 5.09 | Primary 3: rate of change in UPDRS, weeks 48-72 [7]: 0.137 UPDRS units/wk | Primary 2: estimated change in total UPDRS from baseline to week 72 [8]: 2.60 | Primary 3: rate if change in UPDRS, weeks 48-72 [8]: 0.05 UPDRS units/wk | Primary 2: estimated change in total UPDRS from baseline to week 72 [9]: 3.11 | Primary 3: rate of change in UPDRS, weeks 48-72 [9]: 0.065 UPDRS units/wk | Primary 2: estimated change in total UPDRS from baseline to week 72 (rasagiline 2 mg/day delayed-start, all subjects, listed as Rasagiline): 3.11±0.5 | Primary 2: estimated change in total UPDRS from baseline to week 72, early-start-delayed-start [10]: −3.63±1.72 and −3.63 | Primary 3: rate of change in UPDRS, weeks 48-72, early-start-delayed start [10]: −0.03 UPDRS units/wk | Primary 2: estimated change in total UPDRS from baseline to week 72, early-start-delayed-start [11]: 1.10 | Primary 3: rate if change in UPDRS, weeks 48-72, early-start-delayed start [11]: 0.05 UPDRS units/wk | Primary 2: estimated change in total UPDRS from baseline to week 72, early-start-delayed-start (rasagiline 2 mg/day early-start minus delayed-start, all subjects): 0.36±0.68 and 0.36 | Primary 3: rate of change in UPDRS, weeks 48-72, early-start-delayed start (rasagiline 2 mg/day early-start minus delayed-start, all subjects, non-inferiority margin 0.15): 0.03 UPDRS units/wk | Primary 2: estimated change in total UPDRS from baseline to week 72 [12]: 1.46 | Primary 3: rate of change in UPDRS, weeks 48-72 [12]: 0.106 UPDRS units/wk | Primary 2: estimated change in total UPDRS from baseline to week 72 [13]: 3.70 | Primary 3: rate if change in UPDRS, weeks 48-72 [13]: 0.09 UPDRS units/wk | Primary 2: estimated change in total UPDRS from baseline to week 72 [14]: 3.47 | Primary 3: rate of change in UPDRS, weeks 48-72 [14]: 0.094 UPDRS units/wk | Primary 2: estimated change in total UPDRS from baseline to week 72 (rasagiline 2 mg/day early-start, all subjects, listed as Rasagiline): 3.47±0.5 | Primary 1: rate of change in UPDRS, weeks 12-36, 2 mg/day - placebo [1]: −0.20 UPDRS units/wk | Secondary Endpoint: change in total UPDRS from baseline to final visit in phase I, 2 mg/day - placebo [1]: −7.13 | Primary 1: rate of change in UPDRS, weeks 12-36, 2 mg/day - placebo [2]: −0.03 UPDRS units/wk | Secondary Endpoint: change in total UPDRS from baseline to final visit in phase I, 2 mg/day - placebo [2]: −2.16 | Primary 1: rate of change in UPDRS, weeks 12-36, 2 mg/day - placebo (all subjects): −0.07±0.02 UPDRS units/wk and −0.07 UPDRS units/wk | Secondary Endpoint: change in total UPDRS from baseline to final visit in phase I, 2 mg/day - placebo (all subjects): −3.15±0.43 and −3.15 | Primary 1: rate of change in UPDRS, weeks 12-36 [15]: 0.05 UPDRS units/wk | Secondary Endpoint: change in total UPDRS from baseline to final visit in phase I [15]: −0.43 | Primary 1: rate of change in UPDRS, weeks 12-36 [16]: 0.07 UPDRS units/wk | Secondary Endpoint: change in total UPDRS from baseline to final visit in phase I [16]: 1.58 | Primary 1: rate of change in UPDRS, weeks 12-36 [17]: 0.07 UPDRS units/wk | Secondary Endpoint: change in total UPDRS from baseline to final visit in phase I [17]: 1.11 | outcome of the primary analysis (three hierarchal endpoints) [17]: did not meet all three endpoints | outcome of the primary analysis (three hierarchal endpoints) (rasagiline 2 mg/day, all subjects, listed as Rasagiline): did not meet all endpoints
